Results: patent US20250163387A1, “HUMAN PITUITARY NEUROENDOCRINE TUMOR ORGANOIDS AND METHODS OF MAKING AND USING THE SAME” (ARIZONA BOARD OF REGENTS OF THE UNIVERSITY OF ARIZONA, A …, priority 2022, published 2025)

What was measured:
Format in all cases: cell-based, human
[1] = tested on: hPITOs generated from CD patients; assay: High-throughput drug screen, MTS assay; conditions: 1 uM, 72 hrs
Protocol: Patient adenoma-derived pituitary organoids were grown in 96-well plates and treated with 147 small molecules taken from the NCI AOD9 compound library for 72 hrs. (https://dtp.cancer.gov/organization/dscb/obtaining/available_plates.html). Drugs were diluted from 10 mM DMSO stock plates into 100 uM DMSO working stocks with a final concentration of 1 uM. All vehicle controls were treated with 0.1% DMSO. Organoid proliferation was measured using CellTiter 96® AQueous One Solution Cell Proliferation Assay kit (MTS, Promega, G3582) according to the manufacturer's instruction. Organoid death was calculated based on the absorbance readings at 490 nm, collected from the MTS assay relative to the vehicle controls. Drug screens were performed with biological replicates in same screen. Drugs were selected based on their ability to target key signaling pathways and clinical relevance to the treatment. Drug sensitivity is represented by cell viability and is significant at <0.5 suppressive effect of the drugs. The percent cell viability relative to the vehicle control was calculated. Correlation coefficient across each organoid were calculated using Pearson method to assess confidence in replication. Variance Component was detected for each drug across all organoids. A random effect model was run with a single random factor for each drug and estimated variance was calculated by rejecting the null hypothesis that there isn't variation among samples. The drug responses were grouped by variance factor large (vc>100), median (100>vc>50), and small (vc<50). Heatmap was used to display the differential responses in cell viability for the drugs.
Tumor recurrence can occur in as many as 30-50% of CD patients after successful surgical treatment. Unfortunately, bilateral adrenalectomy is the chosen surgical treatment for patients with persistent CD [35]. Bilateral adrenalectomy leads to the increased risk for development of Nelson's syndrome (progressive hyperpigmentation due to ACTH secretion and expansion of the residual pituitary tumor). Although the risk of developing Nelson's syndrome following adrenalectomy can be reduced by 50% with stereotactic radiotherapy, there is a need to develop medical therapies that directly target the pituitary adenoma. Thus, we established a high-throughput drug screening assay using patient-derived pituitary organoids. […] The replicates behaved consistently with the drug response with the correlation scores of >0.8 for these samples (FIG. 3a). We estimated the variance component for each drug across all organoids. […] The drug responses were grouped by variance factor large, median, and small. The larger the variance the more variable is the drug response across the organoids. […]

[2] = tested on: iPSC^USP48MV organoids; assay: ACTH secretion ELISA of conditioned media; conditions: 500 nM
Protocol: (§1) Concentration of secreted ACTH in conditioned media that was collected from organoid cultures was measured using the Human ACTH ELISA Kit (Novus Biologicals, NBP2-66401) according to the manufacturer's protocol. The enzyme-substrate reaction was measured spectrophotometrically (BioTek Gen5 Micro Plate Reader Version 3.11) at a wavelength of 450 nm and the ACTH concentration (pg/mL) was interpolated using a standard curve with a 4-parameter logistic regression analysis using GraphPad Prism (Version 9.2.0).

[3] = tested on: iPSC^ctrl organoids; assay: ACTH secretion ELISA of conditioned media; conditions: 500 nM
Protocol: as §1

[4] = tested on: SSTR2; assay: Differential expression of SSTR2 in iPSC generated pituitary tumor organoids

CC#C[C@]1(O)CC[C@H]2[C@@H]3CCC4=CC(=O)CCC4=C3[C@@H](c3ccc(N(C)C)cc3)C[C@@]21C [Mifepristone]
response of the adenoma cells within the organoids ([1]; hPITO7, 10 and 25): ~0% | response of the adenoma cells within the organoids ([1]; hPITO34 and hPITO35): 50% | magnitude of ACTH secretion induced [2]: significantly greater than the effect of relacorilant | magnitude of ACTH secretion induced [3]: significantly greater than the effect of relacorilant | expression of SSTR2 ([4]; iPSC organoids (ctrl, USP48MI, USP48MV, USP8), 500 nM, vs vehicle): significant induction | differential expression of SSTR2 ([4]; iPSC^ctrl organoids, drug alone (Mife 500 nM, GANT 5 uM, Keto 10 uM, Dexa 100 nM)): significantly induced
